# Laboratory results: patent publication US20150025143A1, “BETA-HYDROXY-BETA-METHYLBUTYRIC ACID FOR IMPROVING GLUCOSE TOLERANCE” (ABBOTT LABORATORIES, priority 2012, published 2015)
# Key:
# [1] = tested on: Spragley-Dawley (SD) rats; experiment: effect of an acute oral dose given before a glucose load on the blood glucose spike (lowering glycemic index); assay type: in vivo; conditions: given 30 minutes before glucose load of approximately 2 g/kg, FIG. 2
# Description: In this Example, the effect of calcium HMB on lowering glycemic index was evaluated in an in vivo study. Particularly, an acute oral dose of calcium HMB was evaluated to determine whether, if given prior to a glucose load, the dose was able to blunt the initial glucose spike.
# Spragley-Dawley (SD) rats (21 days post weaning) (n=7 or 8) were fed an oral dose of calcium HMB at a concentration of: 100 mg/kg (mpk), 300 mpk or 1000 mpk. After thirty minutes, the rats were then orally fed a glucose load consisting of a glucose solution having a concentration of approximately 2 g/kg body weight. A control group (n=4) was not fed the oral dose of calcium HMB prior to the glucose load.
# Blood glucose levels of the rats were measured by tail snip using one-touch ultra Glucometer and glucose strips at different time points (0, 15, 30, 45, 60, 90, and 120 minutes).
# [2] = tested on: C57BL/6J mice; experiment: oral glucose tolerance after nine weeks of supplemented feeding and exercise; assay type: in vivo; conditions: 3.4 mg/g of pediatric nutritional supplement, fed nine weeks with exercise; oral glucose 2 g/Kg; compared to rodent pellet feed control, pediatric nutritional supplement control and both leucine groups (5 and 10 mg/g); FIG. 1
# Description: In this Example, the effect of (1) HMB and (2) leucine on muscle glucose tolerance was analyzed in an in vivo study.
# C57BL/6J mice (Charles River Laboratories, Wilmington Mass.), 21 days post-weaning, were fed either a commercially available pediatric nutritional supplement supplemented with either (1) calcium HMB or (2) leucine, and required to exercise, for nine weeks. […]
# Following the nine weeks, the mice were kept overnight for fasting and body weight was recorded. […] Before glucose administration, the blood glucose was measured by tail snip using one-touch ultra Glucometer and glucose strips.
# All test groups were orally administered the glucose solution at a concentration of 2 g/Kg body weight. […] After oral glucose administration, blood glucose levels were analyzed at different time points (i.e., 15, 30, 60, 90, and 120 minutes) using Glucometer and glucose strips.
structure (smiles),measurement,setting,value
"CC(C)(O)CC(=O)O.[Ca] [Calcium HMB, calcium beta-hydroxy-beta-methylbutyric acid]",glucose spike at 15 minutes post dosing,[1]; 1000 mpk oral,significantly reduced glucose spike
same,glucose spike at early time points,[1]; high oral doses,significantly blunted glucose spike
same,glucose tolerance (blood glucose after oral glucose administration),[2],improved glucose tolerance
